Measured values taken from patent US20240182465A1 (GENFLEET THERAPEUTICS (SHANGHAI) INC., priority 2021, published 2024).
Where a name gives a salt, the structure may show the parent alone. One block for each compound: values may come before it.

Tests used:
[1] = target: T1, HPK1 (Homo sapiens, UniProt Q92918); test: HPK1 kinase activity assay (ADP-Glo); details: HPK1 Kinase activity IC50 (nM), 1 nM HPK1, 10 μM ATP, 0.1 μg/μL MBP
T1 sequence (Q92918 1-346 limits assumed): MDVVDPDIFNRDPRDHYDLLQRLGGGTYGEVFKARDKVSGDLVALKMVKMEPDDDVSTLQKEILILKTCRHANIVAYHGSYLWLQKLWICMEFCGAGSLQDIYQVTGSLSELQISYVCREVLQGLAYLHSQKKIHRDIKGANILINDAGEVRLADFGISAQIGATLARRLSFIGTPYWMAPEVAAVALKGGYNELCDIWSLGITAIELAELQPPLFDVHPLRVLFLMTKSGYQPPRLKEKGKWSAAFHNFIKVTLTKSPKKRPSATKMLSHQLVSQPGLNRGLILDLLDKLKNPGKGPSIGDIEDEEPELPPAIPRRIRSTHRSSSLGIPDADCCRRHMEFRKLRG
Protocol: Preparation of buffer: 1× reaction buffer (40 mM Tris-HCl, 20 mM MgCl2, 0.01% Brij35, 50 μM DTT, 0.1 mg/ml BSA) was prepared using sterile water, which was prepared and used on the day of the experiment.
Preparation of 1000× drug stock plate: a 1000× compound stock plate was prepared. […] The compound stock plate was sealed with a sealing film and stored in a −20° C. refrigerator for later use.
Compound preparation and dosing: the 1000× drug stock plate was taken and melted at room temperature in the dark. Then 5× drug intermediate plate was prepared using reaction buffer and mixed well. 2 μL was transferred from the 5× drug intermediate plate into a 384-well plate, and negative control well and positive control well (in which 2 μL reaction buffer containing 0.5% DMSO was added) were set. Each point was repeated twice.
Preparation and incubation of reaction mixture: HPK1 protein was diluted to a 2.5× working solution with reaction buffer. 4 μL 2.5×HPK1 protein was added to each well containing test compound and positive control well, and 4 μL of reaction buffer without HPK1 protein was added to the negative control well. The obtained mixture was centrifuged at 1000 rpm for 1 min and then incubated in a 20° C. incubator for 15 min. A 2.5× mixed working solution of MBP protein and ATP was prepared with reaction buffer at concentrations of 0.5 μg/μL and 50 PM, respectively. 4 μL of the mixed working solution of MBP and ATP was added to each well, centrifuged at 1000 rpm for 1 min, and then incubated in a 20° C. incubator for 90 min.
ADP-Glo detection and reading plate: 10 μl ADP-Glo was added to each well of the test plate. The resulting mixture was centrifuged at 1000 rpm for 1 min and incubated in a 20° C. incubator for 60 min. Then 10 μL of the final incubation solution was transferred from the test plate to a new 384-well plate. 10 μL of kinase detection reagent was added to each well, centrifuged at 400 g for 1 min, and incubated in a 20° C. incubator for 60 min. Chemiluminescent signals were read by a microplate reader.

[2] = target: HPK1 (Homo sapiens, UniProt Q92918); test: SLP76 phosphorylation assay (intracellular HPK1 inhibitory activity, p-SLP76 Ser376 sandwich ELISA); details: p-SLP76 IC50(nM), Jurkat, Clone E6-1 cells; 1 h compound pre-incubation, anti-CD3 beads stimulation 20 min; SLP76 phosphorylation at S376
Target sequence in this assay (Q92918 whole entry): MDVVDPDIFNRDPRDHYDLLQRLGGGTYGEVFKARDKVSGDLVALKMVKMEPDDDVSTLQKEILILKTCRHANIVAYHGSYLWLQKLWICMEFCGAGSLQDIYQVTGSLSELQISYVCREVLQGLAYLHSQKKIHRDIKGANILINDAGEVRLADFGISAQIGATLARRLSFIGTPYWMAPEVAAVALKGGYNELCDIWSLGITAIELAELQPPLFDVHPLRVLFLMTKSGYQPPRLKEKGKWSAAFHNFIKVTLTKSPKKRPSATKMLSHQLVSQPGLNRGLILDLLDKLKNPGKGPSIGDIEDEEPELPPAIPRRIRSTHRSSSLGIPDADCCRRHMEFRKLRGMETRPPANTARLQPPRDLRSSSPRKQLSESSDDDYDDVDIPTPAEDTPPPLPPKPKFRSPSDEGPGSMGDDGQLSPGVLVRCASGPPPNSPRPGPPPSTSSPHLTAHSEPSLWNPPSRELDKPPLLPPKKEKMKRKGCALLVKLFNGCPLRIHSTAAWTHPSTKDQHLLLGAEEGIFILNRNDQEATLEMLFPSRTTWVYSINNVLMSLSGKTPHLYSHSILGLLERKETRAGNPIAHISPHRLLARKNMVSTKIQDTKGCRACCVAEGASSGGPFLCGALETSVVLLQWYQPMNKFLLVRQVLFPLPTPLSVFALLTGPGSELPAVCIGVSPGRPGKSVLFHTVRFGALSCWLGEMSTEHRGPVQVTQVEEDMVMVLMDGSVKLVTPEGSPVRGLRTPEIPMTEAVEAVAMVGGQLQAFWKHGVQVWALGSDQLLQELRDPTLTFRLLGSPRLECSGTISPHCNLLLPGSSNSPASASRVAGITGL

IC50 [1]: 1.35 nM
IC50 [2]: 343 nM
SMILES: Cc1c[nH]c2ncc(-c3cc4c(c([C@@H]5CCCN5)c3)CN(C(=O)c3ccccc3)CC4)cc12 [Compound Z123]

IC50 [1]: 1.7 nM
IC50 [2]: 463 nM
SMILES: Cc1c[nH]c2ncc(-c3cc4c(c([C@@H]5CCCN5)c3)CN(C(=O)c3ccccn3)CC4)cc12 [Compound Z211, (S)-(6-(3-methyl-1H-pyrrolo[2,3-b]pyridin-5-yl)-8-(pyrrolidin-2-yl)-3,4-dihydroisoquinolin-2(1H)-yl) (pyridin-2-yl)methanone]

IC50 [1]: 0.48 nM
IC50 [2]: 279 nM
SMILES: Cc1c[nH]c2ncc(-c3cc4c(c([C@@H]5CCCN5)c3)CN(C(=O)OC3CC3)CC4)cc12 [Compound Z246, (S)-cyclopropyl 6-(3-methyl-1H-pyrrolo[2,3-b]pyridin-5-yl)-8-(pyrrolidin-2-yl)-3,4-dihydroisoquinoline-2(1H)-carboxylate]

IC50 [1]: 0.44 nM
IC50 [2]: 133 nM
SMILES: CCNC(=O)N1CCc2cc(-c3cnc4[nH]cc(C)c4c3)cc([C@@H]3CCCN3)c2C1 [Compound Z217, (S)—N-ethyl-6-(3-methyl-1H-pyrrolo[2,3-b]pyridin-5-yl)-8-(pyrrolidin-2-yl)-3,4-dihydroisoquinoline-2(1H)-carboxamide]

IC50 [1]: 1.27 nM
IC50 [2]: 215 nM
SMILES: Cc1c[nH]c2ncc(-c3cc4c(c([C@@H]5CCCN5)c3)CN(C(=O)c3ccncn3)CC4)cc12 [Compound Z221, (S)-(6-(3-methyl-1H-pyrrolo[2,3-b]pyridin-5-yl)-8-(pyrrolidin-2-yl)-3,4-dihydroisoquinolin-2(1H)-yl) (pyrimidin-4-yl)methanone]

IC50 [1]: 0.61 nM
IC50 [2]: 254 nM
SMILES: Cc1c[nH]c2ncc(-c3cc4c(c([C@@H]5CCCN5)c3)CCN(C(=O)C(C)(C)O)C4)cc12 [Compound Z301, (S)-2-hydroxy-2-methyl-1-(7-(3-methyl-11H-pyrrolo[2,3-b]pyridin-5-yl)-5-(pyrrolidin-2-yl)-3,4-dihydroisoquinolin-2(1H)-yl)propan-1-one]

IC50 [1]: 0.7 nM
IC50 [2]: 174 nM
SMILES: Cc1cc(C(=O)N2CCc3cc(-c4cnc5[nH]cc(C)c5c4)cc([C@@H]4CCCN4)c3C2)ncn1 [Compound Z331, (S)-(6-(3-methyl-1H-pyrrolo[2,3-b]pyridin-5-yl)-8-(pyrrolidin-2-yl)-3,4-dihydroisoquinolin-2(1H)-yl) (6-methylpyrimidin-4-yl)methanone]

The remaining lines, values behind:

SMILES: Cc1[nH]c2ncc(-c3cc4c(c([C@@H]5CCCN5)c3)CN(C(=O)[C@](C)(O)C(F)(F)F)CC4)cc2c1C [Compound Z414, (S)-1-(6-(2,3-dimethyl-1H-pyrrolo[2,3-b]pyridin-5-yl)-8-((S)-pyrrolidin-2-yl)-3,4-dihydroisoquinolin-2(1H)-yl)-3,3,3-trifluoro-2-hydroxy-2-methylpropan-1-one]
IC50 [1]: 20.6 nM
IC50 [2]: 2610 nM

SMILES: Cc1c[nH]c2ncc(-c3cc4c(c([C@@H]5CCCN5)c3)CN(C(=O)c3cnn(C(C)C)c3C(F)(F)F)CC4)cc12 [Compound Z438, (S)-[1-isopropyl-5-(trifluoromethyl)-1H-pyrazol-4-yl]-[6-(3-methyl-1H-pyrrolo[2,3-b]pyridin-5-yl)-8-[pyrrolidin-2-yl]-3,4-dihydroisoquinolin-2(1H)-yl]methanone]
IC50 [1]: 1.13 nM
IC50 [2]: 339 nM

SMILES: Cc1c[nH]c2ncc(-c3cc4c(c([C@@H]5CCCN5)c3)CCN(C(=O)C(C)(C)C)C4)cc12 [Compound Z300, (S)-2,2-dimethyl-1-(7-(3-methyl-1H-pyrrolo[2,3-b]pyridin-5-yl)-5-(pyrrolidin-2-yl)-3,4-dihydroisoquinolin-2(1H)-yl)propan-1-one]
IC50 [1]: 0.64 nM
IC50 [2]: 274 nM

SMILES: Cc1c[nH]c2ncc(-c3cc4c(c([C@@H]5CCCN5)c3)COCC4)nc12 [Compound Z106, (S)-7-methyl-2-(8-(pyrrolidin-2-yl)isochroman-6-yl)-5H-pyrrolo[2,3-b]pyrazine]
IC50 [1]: 0.53 nM
IC50 [2]: 133 nM

SMILES: Cc1c[nH]c2ncc(-c3cc4c(c([C@@H]5CCCN5)c3)CN(C(=O)N3CCOC[C@H]3C)CC4)cc12 [Compound Z358-2, (6-(3-methyl-1H-pyrrolo[2,3-b]pyridin-5-yl)-8-((S)-pyrrolidin-2-yl)-3,4-dihydroisoquinolin-2(1H)-yl) ((R)-3-methylmorpholin)methanone]
IC50 [1]: 0.23 nM
IC50 [2]: 53.2 nM

SMILES: Cc1c[nH]c2ncc(-c3cc4c(c([C@@H]5CCCN5)c3)COC3(CC3)C4)cc12 [Compound Z229, (S)-3-methyl-5-(8′-(pyrrolidin-2-yl)spiro[cyclopropane-1,3′-isochroman]-6′-yl)-1H-pyrrolo[2,3-b]pyridine]
IC50 [1]: 0.46 nM
IC50 [2]: 276 nM

SMILES: CCNC(=O)N1CCc2c(cc(-c3cnc4[nH]cc(C)c4c3)cc2[C@@H]2CCCN2)C1 [Compound Z295, (S)—N-ethyl-7-(3-methyl-1H-pyrrolo[2,3-h]pyridin-5-yl)-5-(pyrrolidin-2-yl)-3,4-dihydroisoquinoline-2(1H)-carboxamide]
IC50 [1]: 1.22 nM
IC50 [2]: 214 nM

SMILES: Cc1cc(C(=O)N2CCc3c(cc(-c4cnc5[nH]cc(C)c5c4)cc3[C@@H]3CCCN3)C2)cc(C)n1 [Compound Z279, (S)-(2,6-dimethylpyridin-4-yl)(7-(3-methyl-1H-pyrrolo[2,3-b]pyridin-5-yl)-5-(pyrrolidin-2-yl)-3,4-dihydroisoquinolin-2(1H)-yl)methanone]
IC50 [1]: 0.44 nM
IC50 [2]: 162 nM

SMILES: Cc1ncc(N2CCc3c(cc(-c4cnc5[nH]cc(C)c5c4)cc3[C@@H]3CCCN3)C2)s1 [Compound Z38-1, (S)-7-(3-methyl-1H-pyrrolo[2,3-b]pyridin-5-yl)-2-(2-methylthiazol-5-yl)-5-(pyrrolidin-2-yl)-1,2,3,4-tetrahydroisoquinoline]
IC50 [1]: 2.97 nM
IC50 [2]: 719 nM

SMILES: Cc1c[nH]c2ncc(-c3cc4c(c([C@@H]5CCCN5)c3)CN(C(=O)N3CCO[C@@H](C)C3)CC4)cc12 [Compound Z359-1, (6-(3-methyl-1H-pyrrolo[2,3-b]pyridin-5-yl)-8-((S)-pyrrolidin-2-yl)-3,4-dihydroisoquinolin-2(1H)-yl) ((S)-2-methylmorpholin)methanone]
IC50 [1]: 0.27 nM
IC50 [2]: 135 nM

SMILES: CCN1Cc2c(cc(-c3cnc4[nH]cc(C)c4c3)cc2[C@@H]2CCCN2)NC1=O [Compound Z256, (S)-3-ethyl-7-(3-methyl-1H-pyrrolo[2,3-b]pyridin-5-yl)-5-(pyrrolidin-2-yl)-3,4-dihydroquinazolin-2(1H)-one]
IC50 [1]: 0.8 nM
IC50 [2]: 279 nM

SMILES: Cc1cc(C(=O)N2Cc3cc(-c4cnc5[nH]cc(C)c5c4)cc([C@@H]4CCCN4)c3C2)cc(C)n1 [Compound Z262, (S)-(2,6-dimethylpyridin-4-yl)(6-(3-methyl-1H-pyrrolo[2,3-b]pyridin-5-yl)-4-(pyrrolidin-2-yl)isoindolin-2-yl)methanone hydrochloride]
IC50 [1]: 1.72 nM
IC50 [2]: 627 nM

SMILES: COCc1cc(N2CCc3cc(-c4cnc5[nH]cc(C)c5c4)cc([C@@H]4CCCN4)c3C2)ccn1 [Compound Z247, (S)-2-(2-(methoxymethyl)pyridin-4-yl)-6-(3-methyl-1H-pyrrolo[2,3-b]pyridin-5-yl)-8-(pyrrolidin-2-yl)-1,2,3,4-tetrahydroisoquinoline]
IC50 [1]: 0.61 nM
IC50 [2]: 151 nM

SMILES: Cc1c[nH]c2ncc(-c3cc4c(c([C@@H]5CCCN5)c3)CN(CC3(O)CCOCC3)CC4)cc12 [Compound Z437]
IC50 [1]: 0.58 nM
IC50 [2]: 119 nM
